# Measured values from patent US5326774A, “Pharmaceutical preparation of antihypertensive, antianginal, antiarrhythmic and antiglaucomic action” (priority 1992, dated 1994).
# “Also recorded” adds a separate entry of the source. Read-outs that look alike come from different tables or passages of the source.
# Columns and labels:
# [1] = in vivo; settings: mouse
# Text: LD50 values were estimated by using the Litchfield-Wilckoxon method.
# [2] = system: β-adrenoceptor; assay: β-adrenoceptor blocking effect duration; settings: in vivo
# [3] = system: intraocular tension of intact rabbit eyes; settings: for Average decrease of intraocular tension OD, M ± m / Intraocular tension level OD, M ± m: 1% solution
# Procedure: The effects of the compound according to the invention on intraocular tension and hydrodynamics of the eye was tested in 28 chinchilla rabbits with body weight of 2.5-3.5 kg.
# The left animal eyes were control wherein using the same procedure a diluent was instilled.
# [4] = system: arterial pressure; assay: Antihypertensive effect in rats with spontaneous hypertension; format: in vivo, rat
# [5] = system: strophantin-induced arrhythmia; format: in vivo, guinea pig
# [6] = system: mesaton-initiated pressor effect; assay: Mesaton-initiated pressor effect in cats; set-up: species or system cat; settings: in vivo (rats and cats), i.v.
# Procedure: The same tests were carried out on cats.
# [7] = system: experimental animals; assay: Chronic toxicity, intragastric; format: in vivo
# [8] = system: β1-adrenoceptor; assay: Isadrin's positive chronotropic effect, i.v., anesthetized cats; format: in vivo, cat
# Text: (§1) The influence of intravenous injection of the compound according to the invention as compared with the known drugs on […] positive chronotropic and depressor effects in the anesthetized cats was studied.
# [9] = system: β-adrenoceptor; assay: Specificity of β-adrenoceptor blocking effect: positive inotropism
# Text: Thus, the compound of the invention relates to specific β-adrenoceptor blocking agents.
# [10] = molecular target: T1, β2-adrenoceptor (Rattus norvegicus, UniProt P10608); assay: Inhibition of isadrin's depressor effect, i.v., anesthetized rats; format: in vivo
# T1 construct: positive chronotropic and depressor effects in the anesthetized rats; from tissue; host or cells: whole living rat (blood pressure response to isadrin); endogenous receptor
# [11] = system: heart rate; assay: Heart rate in anesthetized rats, i.v.; format: in vivo, rat; settings: for heart rate: control 271±7
# Procedure: β-adrenoceptor blocking activity of the active principle of the pharmaceutical preparation of the invention was studied. […]. The test substances were injected to several groups of animals (6-10 individuals each) in the graded doses of 0.001, 0.0025, 0.01, 0.025, and 0.1 mg/kg.
# From the dosage of […] it gave rise to the lowering of arterial pressure (from 159±9 in the control to 141±11, 127±10 and 123 ±11 mm Hg in the dosages of 0.01, 0.025 and 0.1 mg/kg). From the dosage of 0.0025 mg/kg the compound of the invention gave rise to the dose-related suppression of the isadrin-initiated depressor effect (by 12,63, 82 and 90% in doses of 0.0025, 0.01, 0.025 and 0.1 mg/kg) and, starting from the dosage of […], a positive chronotropic (by 25, 46 and 78% in doses of 0.01, 0.025 said 0.1 mg/kg, respectively) effect.
# [12] = Solubility of the active principle; format: physicochemical
# [13] = system: β2-adrenoceptor; assay: Isadrin's depressor effect, i.v., anesthetized cats; format: in vivo, cat
# Text: as §1
# [14] = system: ventricular fibrillation; assay: Ventricular fibrillation during acute coronary occlusion and reperfusion in anesthetized dogs; format: in vivo, dog; settings: single animals, hydrochloride
# [15] = system: mesaton-initiated pressor effect; assay: Mesaton-initiated pressor effect in anesthetized rats; format: in vivo, rat
# [16] = system: arterial pressure; assay: Arterial pressure and heart rate in conscious normotensive rats, oral; format: in vivo, rat; settings: 10 and 50 mg/kg oral, 1 hour
# [17] = system: coronary vessels; assay: Coronary vessel dilatation and myocardial perfusion in anesthetized rats; format: in vivo, rat; settings: 0.1 mg/kg i.v. (compound of the invention); hydrochloride
# Text: The coronarodilative effect of the compound according to the invention is not associated with its β- and α-adrenoceptor blocking activity and its influence on the systemic perfusion pressure and pump function of the heart. […]
# [18] = system: arterial pressure; assay: Antihypertensive effect in rats with renovascular hypertension; format: in vivo, rat
# Procedure: . In rats suffering from renovascular hypertension the compound of the invention in the dosage of 10 mg/kg (injected intramuscularly) lowered with confidence the arterial pressure (from 137±3 to 117±5 mm of Hg column) 30 minutes after being administered. The 2-week course of the administration of the compound according to the invention (10 mg/kg 1 time a day) caused the antihypertensive effect to be enhanced. By the end of the second week the arterial pressure was 110±8.6 mm Hg. […]
# [19] = system: electrically induced ventricular fibrillation; assay: Threshold of electrically induced ventricular fibrillation in anesthetized cats; format: in vivo, cat
# T1 sequence (P10608 whole entry): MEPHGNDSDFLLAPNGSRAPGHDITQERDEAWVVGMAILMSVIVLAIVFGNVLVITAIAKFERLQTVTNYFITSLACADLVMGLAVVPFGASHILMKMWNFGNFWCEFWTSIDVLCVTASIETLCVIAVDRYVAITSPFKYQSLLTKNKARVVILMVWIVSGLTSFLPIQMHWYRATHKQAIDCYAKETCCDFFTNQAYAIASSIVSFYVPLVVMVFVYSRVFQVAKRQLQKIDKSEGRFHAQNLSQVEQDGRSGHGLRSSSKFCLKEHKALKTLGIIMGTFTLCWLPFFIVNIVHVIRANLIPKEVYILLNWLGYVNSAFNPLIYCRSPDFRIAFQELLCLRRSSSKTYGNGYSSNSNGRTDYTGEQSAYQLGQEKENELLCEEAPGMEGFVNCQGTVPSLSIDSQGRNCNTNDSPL
smiles,measurement,setting,value
"Cc1noc(COc2ccccc2OCC(O)CNC(C)(C)C)n1.Cl (stereo not drawn) [Compound of the invention, 3-methyl-5-[2-(3-tert.butylamino-2-hydroxypropoxy)phenoxymethyl]-1,2,4-oxadiazole hydrochloride]",LD50 at 72 h,[1]; iv,72.5 mg/kg
same,LD50 at 72 h,[1]; po,600 mg/kg
same,β-adrenoceptor blocking effect duration,[2],somewhat superior to propranolol and oxprenolol
same,tolerability for rabbit eyes,"[3]; 0.5, 1 and 2% solutions",well-tolerable
same,"Average decrease of intraocular tension OD, M ± m",[3]; 1 hour,1.9 ± 0.3 ram of Hg column
same,"Intraocular tension level OD, M ± m",[3]; 1 hour,17.1 ± 0.3 ram of Hg column
same,"Average decrease of intraocular tension OD, M ± m",[3]; 2 hours,2.6 ± 0.2 ram of Hg column
same,"Intraocular tension level OD, M ± m",[3]; 2 hours,16.5 ± 0.4 ram of Hg column
same,"Average decrease of intraocular tension OD, M ± m",[3]; 3 hours,2.3 ± 0.3 ram of Hg column
same,"Intraocular tension level OD, M ± m",[3]; 3 hours,17.1 ± 0.4 ram of Hg column
same,"Average decrease of intraocular tension OD, M ± m",[3]; 4 hours,2.3 ± 0.3 ram of Hg column
same,"Intraocular tension level OD, M ± m",[3]; 4 hours,17.1 ± 0.2 ram of Hg column
same,"Average decrease of intraocular tension OD, M ± m",[3]; 5 hours,1.5 ± 0.5 ram of Hg column
same,"Intraocular tension level OD, M ± m",[3]; 5 hours,17.6 ± 0.4 ram of Hg column
same,"Average decrease of intraocular tension OD, M ± m",[3]; 6 hours,1.2 ± 0.4 ram of Hg column
same,"Intraocular tension level OD, M ± m",[3]; 6 hours,17.8 ± 0.4 ram of Hg column
same,"Average decrease of intraocular tension OD, M ± m",[3]; 24 hours,0.8 ± 0.5 ram of Hg column
same,"Intraocular tension level OD, M ± m",[3]; 24 hours,18.2 ± 0.7 ram of Hg column
same,mechanism of lowering of intraocular tension,[3]; intact rabbit eyes,decrease in secretion of surface water (watery moisture)
same,duration of lowering of intraocular tension,"[3]; intact rabbit eyes, 0.5, 1 and 2% solutions",6 to 8 h
same,irritating effect,"[3]; rabbit, in vivo",no irritating effect
same,pupil value,"[3]; rabbit, in vivo",do not change considerably the pupil value
same,hypotensive and antihypertensive properties,[4],shows hypotensive and antihypertensive properties
same,Arrhythmogenic dose of strophantin as compared with control: extrasystoles,[5]; 0.1 mg/kg i.v.,118%
same,Dose of strophantin as compared with control: ventricular fibrillation,[5]; 0.1 mg/kg i.v.,115.6%
same,Lethal dose of strophantin as compared with control: animal death,[5]; 0.1 mg/kg i.v.,118.7%
same,Arrhythmogenic dose of strophantin as compared with control: extrasystoles,[5]; 0.3 mg/kg i.v.,125.9%
same,Dose of strophantin as compared with control: ventricular fibrillation,[5]; 0.3 mg/kg i.v.,113.1%
same,Lethal dose of strophantin as compared with control: animal death,[5]; 0.3 mg/kg i.v.,123.5%
same,Arrhythmogenic dose of strophantin as compared with control: extrasystoles,[5]; 1.0 mg/kg i.v.,148.2%
same,Dose of strophantin as compared with control: ventricular fibrillation,[5]; 1.0 mg/kg i.v.,147.2%
same,Lethal dose of strophantin as compared with control: animal death,[5]; 1.0 mg/kg i.v.,142.6%
same,Arrhythmogenic dose of strophantin as compared with control: extrasystoles,[5]; 3.0 mg/kg i.v.,157.0%
same,Dose of strophantin as compared with control: ventricular fibrillation,[5]; 3.0 mg/kg i.v.,170.2%
same,Lethal dose of strophantin as compared with control: animal death,[5]; 3.0 mg/kg i.v.,150.7%
same,antiarrhythmic activity and efficacy,[5]; 0.1-3.0 mg/kg i.v.,"superior to propranolol, oxprenolol and labetalol"
same,adrenoceptor blocking activity compared with labetalol,[6],did not differ from labetalol
same,biochemical blood values,"[7]; 5 and 30 mg/kg, 6 months",no effect on biochemical blood values
same,clinical blood values,"[7]; 5 and 30 mg/kg, 6 months",did not change the clinical blood values
same,"influence on behavior, appearance, body functions","[7]; 5 and 30 mg/kg, 6 months",not exert an essential influence
same,locally irritant effect,"[7]; 5 and 30 mg/kg, 6 months",did not exert any locally irritant effect
same,pathologic alterations in structure of internals,"[7]; 5 and 30 mg/kg, 6 months",did not lead to pathologic alterations
same,chronic toxicity tolerance,[7]; intragastric,excellent tolerance
same,β1-adrenoceptor blocking activity compared with pindolol,[8],close to pindolol
same,"β1-adrenoceptor blocking activity, factor over labetalol",[8],550
same,"β1-adrenoceptor blocking activity, factor over oxprenolol",[8],35
same,"β1-adrenoceptor blocking activity, factor over propranolol",[8],3.5
same,effect on positive inotropism of isadrin,[9],completely arrested
same,"effect on positive inotropism of strophanthin, calcium chloride and theophylline",[9],did not inhibit but even somewhat enhanced
same,suppression of the isadrin-initiated depressor effect,[10]; 0.025 mg/kg i.v.,82%
same,suppression of the isadrin-initiated depressor effect,[10]; 0.1 mg/kg i.v.,90%
same,"β2-adrenoceptor blocking activity, times as high as labetalol","[10]; comparison of ED50, rats i.v.",412 times
same,"β2-adrenoceptor blocking activity, times as high as oxprenolol","[10]; comparison of ED50, rats i.v.",4 times
same,"β2-adrenoceptor blocking activity, times as high as pindolol","[10]; comparison of ED50, rats i.v.",2 times
same,"β2-adrenoceptor blocking activity, times as high as propranolol","[10]; comparison of ED50, rats i.v.",11 times
same,dosage from which isadrin depressor effect suppressed,[10]; i.v.,0.0025 mg/kg
same,ED50,"[10]; rat, iv, read-out: Dosage inhibiting isadrin's depressor effect by 50%, ED50",0.008 ± 0.0007 mg/kg
same,heart rate,[11]; 0.0025 mg/kg i.v.,249±11 beat/min.
same,heart rate,[11]; 0.01 mg/kg i.v.,238±16 beat/min.
same,heart rate,[11]; 0.025 mg/kg i.v.,204±14 beat/min.
same,heart rate,[11]; 0.1 mg/kg i.v.,181±14 beat/min.
same,minimal effective dose,"[11]; Rattus norvegicus, iv, read-out: dosage from which heart rate decreased",0.0025 mg/kg
same,solubility in ethyl ether,[12],substantially insoluble
same,"solubility in water, chloroform, ethanol",[12],readily soluble
same,"β2-adrenoceptor blocking activity, times as high as labetalol",[13],114 times
same,"β2-adrenoceptor blocking activity, times as high as oxprenolol",[13],43 times
same,"β2-adrenoceptor blocking activity, times as high as propranolol",[13],2 times
same,Ventricular fibrillation during acute occlusion and reperfusion,[14]; 10 min after injection,R
same,Ventricular fibrillation during acute occlusion and reperfusion,[14]; 60 min after injection,R
same,effect on mesaton pressor effect,[15]; 3 mg/kg i.v.,did not change
same,suppression of mesaton pressor effect,"[15]; 10 mg/kg i.v., average",76%
same,arterial pressure,[16],arterial pressure lowering
same,heart rate,[16],a decrease in heart rate
same,coronary vessel dilatation / myocardial perfusion,[17],dilatation (with confidence) of coronary vessels; also recorded: direct coronarodilating effect
same,arterial pressure,"[18]; 10 mg/kg 1 time a day, end of second week",110±8.6 mm Hg
same,arterial pressure,"[18]; 10 mg/kg i.m., 30 minutes, from 137±3",117±5 mm of Hg column
same,efficacy on long-time use,[18]; long time use,its efficacy is not becoming low (no drug addiction)
same,threshold of electrically induced ventricular fibrillation,[19]; 1 mg/kg,did not change
same,threshold of electrically induced ventricular fibrillation,[19]; 5 mg/kg,increased considerably this threshold
same,value of increasing threshold compared with propranolol and oxprenolol,[19]; 5 mg/kg,higher
same,"antiarrhythmic activity and efficacy (ventricular fibrillation threshold, strophanthin arrhythmia)","[19]; compared with propranolol, oxprenolol, pindolol and labetalol","superior to propranolol, oxprenolol, pindolol and labetalol"
